Reference: patent publication US20090068143A1, “ORALLY EFFECTIVE C[…]” (priority 2005, published 2009)

Tests used:
[1] = Stability in aqueous solutions; assay type: physicochemical; conditions: 2 mg/ml in phosphate buffer (pH 7.0), 4° C.
Method: Stability of compounds of the invention in aqueous solutions was compared. Compounds were dissolved in buffer phosphate solutions and their concentration monitored using HPLC and spectrophotometer methodology. While compound 18F at concentration of 2 mg/ml in phosphate buffer (pH 7.0) was stable for at least 3 months at 4° C., compound 18B at concentration of 95 μg/ml in citrate buffer (pH 7.1) readily hydrolyzed in less than 24 hours at 4° C. Therefore, compounds that were designed following the same rational yielded unexpectedly divergent outcome, for instance in connection with stability in aqueous solutions.

MBP induced acute EAE = assay: MBP induced acute EAE; assay type: in vivo, Lewis rats
Method: In the present study, EAE was induced by injection of Myelin Basic Protein (MBP), a method known to model the acute phase of MS. In this model the onset of the disease is observed by the appearance of clinical symptoms about 10 days after induction. The disease progresses and the clinical score increases and peaks around day 15 and spontaneous recovery is observed around day 23 after induction of the disease.
Female Lewis rats (average body weight 130-180 g, Harlan, Israel) were injected s.c. into the hind paws with 25 μg of purified guinea pig myelin basic protein (MBP, Sigma) emulsified in 0.1 ml of Complete Freund's Adjuvant (Difco). Animals were maintained on a 12 hours light/12 hours dark regimen, at a constant temperature of 22° C., with food and water ad libitum. Starting from day 8 following induction, animals were followed up on a daily basis. The results are recorded as clinical score; score of 0 indicates a normal animal with no clinical signs, 0.5 indicates a loss of tonicity in the tail's distal part, 1 indicates whole tail paralysis, 1.5 indicates hind legs weakness in one leg, 2 indicates hind legs weakness in two legs, 2.5 indicates fore legs paralysis in one leg, 3 indicates paralysis of all four legs, 4 indicates complete body paralysis and moribund state and 5 indicates death. The clinical score of the animals is recorded for 15 days following onset of disease until the end of the study 25 days following induction and the area under the curve (AUC) is calculated over this period of time.
Few routes of administration were assessed and the treatments were either administered intravenously (in CE vehicle) or orally by gavage (in PB vehicle) at volume dose of 5 ml/kg.
Results are expressed as mean±SEM and the differences between the treatment groups were analyzed by analysis of variance (ANOVA) followed by Tukey's post hoc test. A value of p<0.05 was considered to be statistically significant and is indicated on the figure by an asterisk over the relevant treatment group.
Compound 18A was dissolved in CREMOPHOR EL®:ethanol and further diluted in physiological buffer prior to i.v. administration. It is now disclosed that compound 18F could be dissolved directly in 80 mM phosphate buffer (pH 6.4) and administered p.o. Compound 18F was administered by oral gavage at doses of 20, 30, 40, 50 and 60 mg/kg to animals showing clinical signs of the disease. Each treatment group comprised at least 10 animals at onset of disease. At some doses, experiments were repeated up to four times.

visceral pain = assay: Visceral pain, acetic acid induced writhing responses; assay type: in vivo, ICR mice; conditions: for number of writhing responses: alone or combined with 0.5 mg/kg CPZ; for reduction of writhing responses as compared to vehicle treated animals: second study
[2] = test system: MOG induced chronic progressive EAE; assay: MOG induced chronic-progressive EAE; conditions: for animals that reached a clinical score of 0 (fully recovered): 13 animals per group

**Q.** For `CCCCCCC(C)(C)c1cc(O)c([C@H]2CC(=O)C3CC2C3(C)C)c(OC(=O)/C=C/C(=O)O)c1` (single isomer, unassigned; (-)) [Compound 18F, (−)-4-{4-[1,1-Dimethylheptyl]-2-fumarate-6-hydroxy-phenyl}-6,6-dimethyl-bicyclo[3.1.1]heptan-2-one], which “time stable in solution” value [1] is on record?
**A.** at least 3 months

**Q.** And the “effect on clinical outcome (mean group score)” value (MBP induced acute EAE; 20 mg/kg p.o.)?
**A.** does not significantly affect the clinical outcome

**Q.** And the “effect on mean of maximal scores (MMS)” value (MBP induced acute EAE; 20 mg/kg p.o.)?
**A.** only a trend of improvement

**Q.** What about the “effect on clinical outcome (mean group score)” value (MBP induced acute EAE; 30 mg/kg p.o.) of the same compound?
**A.** positive trend of score reduction

**Q.** And the “reduction of AUC” value (MBP induced acute EAE; 30 mg/kg p.o., ns)?
**A.** more than 20%

**Q.** And the “reduction of AUC” value (MBP induced acute EAE; 40 mg/kg p.o., p<0.05)?
**A.** 33%

**Q.** What about the “reduction of AUC” value (MBP induced acute EAE; 50 mg/kg p.o., p<0.05) of the same compound?
**A.** 42%

**Q.** And the “animals died before study completion” value (MBP induced acute EAE; 60 mg/kg p.o.)?
**A.** 7%

**Q.** What about the “reduction of AUC” value (MBP induced acute EAE; 60 mg/kg p.o., p<0.05) of the same compound?
**A.** 43%

**Q.** And the “increase of pain threshold over vehicle treated animals (mechanical hyperalgesia)” value (MBP induced acute EAE; 60 mg/kg p.o., preliminary)?
**A.** 25%

**Q.** And the “reduction in MMS” value (MBP induced acute EAE; 30-60 mg/kg p.o.)?
**A.** at least 30%

**Q.** And the “CB1 mediated side effects” value (MBP induced acute EAE; repeated p.o. administration)?
**A.** no CB1 mediated side effects were observed

**Q.** And the “number of writhing responses” value (visceral pain; 0.5 mg/kg compound 18F i.v.)?
**A.** 10

**Q.** And the “reduction of writhing responses as compared to vehicle treated animals” value (visceral pain; 0.5 mg/kg i.v.)?
**A.** 64%

**Q.** And the “number of writhing responses” value (visceral pain; 1 mg/kg compound 18F i.v.)?
**A.** 9

**Q.** What about the “inhibition of the number of writhing responses” value (visceral pain; 1 mg/kg i.v.) of the same compound?
**A.** 71%

**Q.** And the “effect of addition of CB1 antagonist on analgesic activity” value (visceral pain; 1 mg/kg i.v. + 1 mg/kg SR141716A)?
**A.** only partially reversed

**Q.** And the “effect of addition of CB2 antagonist on analgesic activity” value (visceral pain; 1 mg/kg i.v. + 1 mg/kg SR144528)?
**A.** significantly reversed

**Q.** And the “inhibition of writhing responses as compared to vehicle treated group” value (visceral pain; 2 mg/kg i.v.)?
**A.** 94%

**Q.** What about the “reduction of writhing responses as compared to vehicle treated animals” value (visceral pain; 2 mg/kg i.v.) of the same compound?
**A.** 98%

**Q.** And the “inhibition of writhing responses” value (visceral pain; 10 mg/kg p.o. in CREMOPHOR®:Ethanol)?
**A.** 71%

**Q.** And the “inhibition of pain response as compared to untreated animals” value (visceral pain; 10 mg/kg p.o. in phosphate buffer)?
**A.** 61%

**Q.** What about the “dose from which reduction of writhing responses was significant” value (visceral pain; p.o. in phosphate buffer) of the same compound?
**A.** 10 mg/kg

**Q.** And the “inhibition of writhing responses” value (visceral pain; p.o. in phosphate buffer, highest dose tested (5 to 60 mg/kg))?
**A.** 93%

**Q.** What about the “reduction of clinical score, first peak day 14 to 25” value (“reduction of clinical score … to 25” for short) ([2]; 20 mg/kg p.o. daily for 19 days from day 13) of the same compound?
**A.** about 12%

**Q.** And the “animals that reached a clinical score of 0 (fully recovered)” value (from here on “animals that reached a clinical score”) ([2]; 20 mg/kg p.o.)?
**A.** 8%

**Q.** What about the “reduction of clinical score … to 25” value ([2]; 40 mg/kg p.o. daily for 19 days from day 13) of the same compound?
**A.** 43%

**Q.** What about the “animals that reached a clinical score” value ([2]; 40 mg/kg p.o.) of the same compound?
**A.** 23%

**Q.** What about the “clinical score for about a week from day 36” value ([2]; 60 mg/kg p.o.) of the same compound?
**A.** about 0.2

**Q.** What about the “reduction of clinical score as compared to control, week from day 36” value ([2]; 60 mg/kg p.o.) of the same compound?
**A.** 80%

**Q.** And the “reduction of clinical score … to 25” value ([2]; 60 mg/kg p.o. daily for 19 days from day 13)?
**A.** 44%

**Q.** What about the “animals that reached a clinical score” value ([2]; 60 mg/kg p.o.) of the same compound?
**A.** 31%

**Q.** And the “clinical score below control at the end of the study” value ([2]; 60 mg/kg p.o., 20 days after treatment cessation)?
**A.** 30%

**Q.** And the “clinical score at the end of the study” value ([2]; 60 mg/kg p.o., 20 days after treatment cessation, control 0.95)?
**A.** 0.65

**Q.** And the “plateau level clinical score” value ([2]; 60 mg/kg p.o., control about 1.2)?
**A.** about 0.6

**Q.** And the side effects ([2]; high doses p.o., first 10 minutes post administration, eliminated from day 4)?
**A.** Some minor and transient side effects were observed

**Q.** What about the “day of first full recovery” value ([2]; highest dose (60 mg/kg p.o.), treatment from day 13) of the same compound?
**A.** 16 days

**Q.** What about the “day of first full recovery” value ([2]; intermediate dose (40 mg/kg p.o.)) of the same compound?
**A.** 17 days

**Q.** And the “day of first full recovery” value ([2]; lowest dose (20 mg/kg p.o.))?
**A.** 22 days

**Q.** What about the “reduction of AUC as compared to control group” value ([2]; separate study, 40 mg/kg p.o.) of the same compound?
**A.** 36%

**Q.** And the “AUC of clinical score” value ([2]; separate study, daily from day 13, 18F 40 mg/kg p.o., COP-1 25 mg/kg s.c., IFN-β 10,000 IU per mouse s.c., control 24.14)?
**A.** 15.47 units

**Q.** And the “mean group clinical score at the end of the study” value ([2]; separate study, daily from day 13, 18F 40 mg/kg p.o., COP-1 25 mg/kg s.c., control above 2.4)?
**A.** 1.25
